From US8772347B2, “Use of a pharmaceutical composition for promoting proliferation and/or migration of skin cells, and for improving wound healing in a subject” (Kaohsiung Medical University, priority 2011, dated 2014)

Tests used:
[1] = system: PDGF-αβ; assay: ELISA, growth factor expression in conditioned medium of fibroblasts; type: cell-based, human; settings: 24 hr, medium supernatant, mean ± SD
Protocol: (§1) Skin cells are cultured following the method provided in Exp Dermatol 2011; 20: 242-8. Human skin fibroblasts are derived from Chung-Ho Memorial Hospital, Kaohsiung Medical University, Taiwan, ROC, and incubated in Dulbecco's Modified Eagle Medium including 10% fetal calf serum, 100 μg/ml streptomycin, and 250 ng/ml amphotericin B. Human keratinocytes are isolated from foreskin primary culture and cultured in Keratinocyte-SFM Medium supplemented with Bovine Pituitary Extract and EGF. All of these cells are incubated at 37° C. in a humidified incubator with 5% CO2 atmosphere.
(§2) Enzyme-linked immunoassay (ELISA) is performed to analyze the effect on the growth factor expression of skin cells treated with different 6-DG concentration (dissolved in DMSO). Firstly, 6-DG of different concentration is incubated in a 6-well culture dish with skin cells cultured in a conditioned medium for 24 hr. Supernant of the conditioned medium is collected for analyzing the concentration of TGF-β, VEGF, and PDGF-αβ following the directions provided by DuoSet ELISA development kits (R&D Systems, USA). With regard to whether DMSO has effect on the growth factor expression or not, skin cells treated with DMSO are used as a control.

[2] = system: TGF-β; assay: as above; type: cell-based, human; settings: 24 hr, medium supernatant, mean ± SD
Protocol: as §1, §2

[3] = system: VEGF; assay: as above; type: cell-based, human; settings: 24 hr, medium supernatant, mean ± SD
Protocol: as §1, §2

[4] = system: human keratinocytes; assay: Migration of skin cells into wound area (scratch assay, TScratch); type: cell-based
Protocol: as §1
(§3) An assay disclosed in Process Biochemistry 2010; 45:1865-72 is performed to analyze the effect on migration of skin cells treated with different 6-DG concentration (dissolved in DMSO). 5×10^5 skin cells are seeded in a 12-well culture dish and grown to complete confluence. Prior to adding 6-DG of different concentration to the dish, a clean […] would area is created on the skin cells. The wound area is photographed using an inverted phase-contrast microscopy (TE2000-U; Nikon, Tokyo, Japan) equipped with NIS-Elements software (Nikon), and the skin cell migration in the wound area is calculated by the free software “TScratch” (www.cse-lab.ethz.ch/software.html). Considering whether DMSO has effect on the skin cell migration or not, skin cells treated with 0.5% DMSO are used as a control.

[5] = system: human fibroblasts; assay: as above; type: cell-based
Protocol: as §1, §3

[6] = system: MMP-1; assay: Collagen zymography, MMP-1 activity of human fibroblasts; type: cell-based
Protocol: Collagen zymography is performed to analyze the effect on the MMP-1 activity of skin cells treated with 6-DG. After electrophoresis of the foregoing lysed cell extract in SDS-PAGE containing 0.1% collagen, the SDS-PAGE is reacted with 2.5% Triton X-100 to remove SDS and make the protein of the lysed extract folded, and then incubated with a Tris-base buffer containing NaCl, CaCl2, and ZnCl2. Finally, this gel is stained with Coomassie Brilliant Blue R250, and the signal at 52 kDa […] position on the gel is calculated by Gel Pro v4.0 software (Media Cybernetics, Silver Spring, Md., USA).
“BACKGROUND OF THE INVENTION” of the content is said that PMA, an activator for protein kinase C, phosphorylates JNK and ERK to produce MMP-1, and inhibits TIMP-1. For confirming the effect on the MMP-1 activity of skin cells treated with 6-DG, the human fibroblasts are incubated with 20 ng/ml PMA prior to being treated with 6-DG.

[7] = system: PDGF-αβ; assay: ELISA, growth factor expression in conditioned medium of keratinocytes; type: cell-based, human; settings: 24 hr, medium supernatant, mean ± SD
Protocol: as §1, §2

[8] = system: TGF-β; assay: as above; type: cell-based, human; settings: 24 hr, medium supernatant, mean ± SD
Protocol: as §1, §2

[9] = system: VEGF; assay: as above; type: cell-based, human; settings: 24 hr, medium supernatant, mean ± SD
Protocol: as §1, §2

[10] = system: c-Jun and ERK; assay: Western blotting, human fibroblasts, phosphorylation; type: cell-based; settings: compared with cells only treated with PMA
Protocol: Signal transduction of skin cells treated with 6-DG is studied. Firstly, 6-DG of different concentration is incubated with 1×10^6 human fibroblasts. After being incubated for 24 hr, the human fibroblasts are washed twice with phosphate-buffered saline (PBS), and then lysed by a lysis buffer containing 50 mM Tris-HCl, pH7.5, 137 mM sodium chloride, 1 mM EDTA, 1% Nonidet P-40, 10% glycerol, 0.1 mM sodium orthovanadate, 10 mM sodium pyrophosphate, 20 mM β-glycerophosphate, 50 mM sodium fluoride, 1 mM phenylmethysulfonyl fluoride, 2 mM leupeptin, and 2 μg/ml aprotinin. A cell extract having the lysed human fibroblasts is separated by a centrifugal force of 10,000 g at 4° C., and supernant of the cell extract is collected for determining protein concentration using Bicinchoninic acid protein assay kit (Pierce, Rockford, Ill., USA). Equal concentration of protein in the supernant is separated by SDS-PAGE, and then blotted to a PVDF membrane (PALL Life Science, Ann Arbor, Mich., USA). After being blocked for 1 hr in phosphate-buffered saline & tween (PBST) containing 5% non-fat milk, primary antibodies are added to the membrane. The membrane is washed with PBST twice, and next secondary antibodies against the primary antibodies are added to the membrane. Finally, signals on the membrane are visualized by enhanced chemiluminescence substrate (PerkinElmer, USA). […]

[11] = system: human keratinocytes; assay: MTT assay, proliferation of skin cells; type: cell-based; settings: 24 hr, FIG. 2(B)
Protocol: as §1
(§4) 3-(4,5-cimethylthiazol-2-yl)-2,5-diphenyl tetrazolium bromide assay (MTT assay) is performed to analyze the effect on the proliferation of skin cells treated with different 6-DG concentration (dissolved in DMSO). Firstly, 6-DG of different concentration is seeded in a 96-well culture dish cultured with skin cells and incubated for 24 hr. MIT solution (5 mg/ml, dissolved in PBS) is added into the dish and incubated again at 37° C. for 2 hr. Medium in the dish is removed, 0.05 ml DMSO is added to the dish, and then the dish is shaken in a dark position for 20 min. Finally, the OD value of each well of the dish is calculated by 595 nm-wavelength light (UV-vis, BioTek, USA). Considering whether DMSO has effect on the skin cell proliferation or not, skin cells treated with DMSO are used as a control.

[12] = system: human fibroblasts; assay: MTT assay, proliferation of skin cells; type: cell-based; settings: for proliferation of human fibroblasts compared with control: 24 hr, MTT, FIG. 2(A)
Protocol: as §1, §4

[13] = system: collagen; assay: Sirius red collagen staining, human fibroblasts; type: cell-based; settings: for collagen expression level of fibroblasts: FIG. 5(B); for collagen expression level per human fibroblast: FIG. 5(C)
Protocol: Sirius red collagen staining is performed to analyze the effect on the collagen expression of skin cells treated with 6-DG 6-DG of different concentration is added to a 24-well culture dish cultured with human fibroblasts. Medium in the dish is removed and the fibroblasts are washed with PBS twice. 100 μl Sirius Red is added to each well of the dish and incubated at room temperature for 1 hr. After removing the unstained Sirius Red, the fibroblasts are washed with 100 μl 0.1N HCl for at least five times, and then 100 μl 0.1N NaOH is used to extract the stained Sirius Red. Finally, the OD value of the extracted stained Sirius Red is calculated by 540 nm-wavelength light. As the described in “BACKGROUND OF THE INVENTION,” it is said that PMA, an activator for protein kinase C, phosphorylates JNK and ERK to produce MMP-1, and inhibits TIMP-1. With regard to the effect on the collagen expression of skin cells treated with 6-DG, the human fibroblasts are incubated with 20 ng/ml PMA prior to being incubated with 6-DG.

[14] = system: TIMP-1; assay: Western blotting, human fibroblasts; type: cell-based
Protocol: (§5) Signal transduction of skin cells treated with 6-DG is studied. Firstly, 6-DG of different concentration is incubated with 1×10^6 human fibroblasts. After being incubated for 24 hr, the human fibroblasts are washed twice with phosphate-buffered saline (PBS), and then lysed by a lysis buffer containing 50 mM Tris-HCl, pH7.5, 137 mM sodium chloride, 1 mM EDTA, 1% Nonidet P-40, 10% glycerol, 0.1 mM sodium orthovanadate, 10 mM sodium pyrophosphate, 20 mM β-glycerophosphate, 50 mM sodium fluoride, 1 mM phenylmethysulfonyl fluoride, 2 mM leupeptin, and 2 μg/ml aprotinin. A cell extract having the lysed human fibroblasts is separated by a centrifugal force of 10,000 g at 4° C., and supernant of the cell extract is collected for determining protein concentration using Bicinchoninic acid protein assay kit (Pierce, Rockford, Ill., USA). Equal concentration of protein in the supernant is separated by SDS-PAGE, and then blotted to a PVDF membrane (PALL Life Science, Ann Arbor, Mich., USA). After being blocked for 1 hr in phosphate-buffered saline & tween (PBST) containing 5% non-fat milk, primary antibodies are added to the membrane. The membrane is washed with PBST twice, and next secondary antibodies against the primary antibodies are added to the membrane. Finally, signals on the membrane are visualized by enhanced chemiluminescence substrate (PerkinElmer, USA). As the description of “BACKGROUND OF THE INVENTION,” it is said that PMA, an activator for protein kinase C, phosphorylates JNK and ERK to produce MMP-1 and inhibits TIMP-1. For further confirming the effect on signal transduction of skin cells treated with 6-DG, the human fibroblasts are incubated with 20 ng/ml PMA prior to being treated with 6-DG.

[15] = system: MMP-1; assay: Western blotting, human fibroblasts; type: cell-based; settings: compared with cells only treated with PMA
Protocol: as §5

[16] = system: human fibroblasts; assay: Proliferation of human fibroblasts with or without PMA (FIG. 5(A)); type: cell-based
[17] = skin cells (fibroblasts and keratinocytes), based on the volume of the composition
[18] = 20 ng/ml PMA prior to 6-DG, compared with PMA only
[19] = 6-DG, compared with untreated (control) and PMA only

SMILES: CCCCCC(=O)/C=C(O)/C=C/c1ccc(O)c(OC)c1 [6-DG, 6-dehydrogingerdione]
- PDGF-αβ ([1]; 6-DG 2 μM): 7.1 ± 0.1 pg/mL
- PDGF-αβ ([1]; 6-DG 10 μM): 5.3 ± 0.1 pg/mL
- TGF-β ([2]; 6-DG 2 μM): 984.5 ± 21.6 pg/mL
- TGF-β ([2]; 6-DG 10 μM): 1003.3 ± 24.0 pg/mL
- VEGF ([3]; 6-DG 2 μM): 432.0 ± 14.6 pg/mL
- VEGF ([3]; 6-DG 10 μM): 294.5 ± 14.6 pg/mL
- migration of human keratinocytes to the wound area ([4]; 2 μM 6-DG for 24 hr): more obvious
- migration of human keratinocytes to the wound area ([4]; 10 μM 6-DG, compared with 2 μM): less obvious than that after being treated with 2 μM
- migration of human keratinocytes to the wound area compared with control ([4]; treated with 6-DG, FIGS. 3(C)-3(D)): obviously migrate to the wound area
- migration of human fibroblasts to the wound area ([5]; 2 μM 6-DG for 24 hr): more obvious
- migration of human fibroblasts to the wound area ([5]; 10 μM 6-DG, compared with 2 μM): less obvious than that after being treated with 2 μM
- effective concentration for promoting migration of skin cells [5, 17]: 2 to 50 µM
- migration of human fibroblasts to the wound area compared with control ([5]; treated with 6-DG, FIGS. 3(A)-3(B)): obviously migrate to the wound area
- activity of MMP-1 ([6]; 20 ng/ml PMA prior to 6-DG, compared with fibroblasts only treated with PMA): lower activity of MMP-1
- activity of MMP-1 ([6]; 6-DG, compared with fibroblasts only treated with PMA): lower MMP-1 activity
- activity of MMP-1 ([6]; 6-DG, compared with fibroblasts untreated, FIGS. 6(A)-6(B)): no obvious difference
- PDGF-αβ ([7]; 6-DG 2 μM): 5.84 ± 0.2 pg/mL
- PDGF-αβ ([7]; 6-DG 10 μM): 4.55 ± 0.1 pg/mL
- TGF-β ([8]; 6-DG 2 μM): 822.8 ± 15.3 pg/mL
- TGF-β ([8]; 6-DG 10 μM): 768.0 ± 9.6 pg/mL
- VEGF ([9]; 6-DG 2 μM): 344.3 ± 9.5 pg/mL
- VEGF ([9]; 6-DG 10 μM): 292.8 ± 7.3 pg/mL
- phosphorylation level of c-Jun and ERK ([10]; 20 ng/ml PMA prior to 6-DG): less phosphorylation level of c-Jun and ERK
- phosphorylation level of c-Jun and ERK ([10]; 6-DG): less phosphorylation level of c-Jun and ERK
- proliferation of human keratinocytes compared with control ([11]; 2 μM 6-DG): obviously proliferated
- proliferation of human keratinocytes compared with control ([11]; 50 μM 6-DG): obviously proliferated
- proliferation of human keratinocytes compared with control ([11]; 100 μM 6-DG): not obviously proliferated
- proliferation of human fibroblasts compared with control ([12]; 2 μM 6-DG): obviously proliferated
- proliferation of human fibroblasts compared with control ([12]; 50 μM 6-DG): obviously proliferated
- proliferation of human fibroblasts compared with control ([12]; 100 μM 6-DG): not obviously proliferated
- effective concentration for promoting skin cell proliferation [12, 17]: 2 to 50 µM
- collagen expression level of fibroblasts [13, 18]: still have up-regulated expression of collagen
- collagen expression level per human fibroblast [13, 18]: still has up-regulated expression of collagen
- collagen expression level of fibroblasts [13, 19]: up-regulated expression of collagen
- collagen expression level per human fibroblast [13, 19]: up-regulated expression of collagen
- expression of TIMP-1 ([14]; 6-DG 24 hr, compared with fibroblasts untreated): up-regulate the expression of TIMP-1
- expression level of TIMP-1 ([14]; 6-DG, compared with cells only treated with PMA): up-regulated expression level of TIMP-1
- expression level of MMP-1 ([15]; 20 ng/ml PMA prior to 6-DG): down-regulated expression level of MMP-1
- expression level of MMP-1 ([15]; 6-DG): down-regulated expression level of MMP-1
- proliferation of fibroblasts [16, 18]: still have obvious proliferation
- proliferation of fibroblasts [16, 19]: obvious proliferation
